Test results taken from patent US5314901A, “1,2,5,6-tetrahydropyridine oxime compounds” (Beecham Group p.l.c., priority 1990, dated 1994).
Counter-ions that a name gives are not always drawn.

Legend:
[1] = molecular target: muscarinic receptors (3H-QNB), cerebral cortex; assay: Radio ligand binding: displacement of the muscarinic antagonist 3H-Quinuclidinyl Benzilate (3H-QNB) from rat cerebral cortex membranes; set-up: species or system Hooded Lister rats; settings: displacement of 0.27 nM 3H-QNB (muscarinic antagonist), 37° C., 30 min
[2] = molecular target: muscarinic receptors (3H-OXO-M), cerebral cortex; assay: Radio ligand binding: displacement of the muscarinic agonist 3H-Oxotremorine-M (3H-OXO-M) from rat cerebral cortex membranes; set-up: species or system Hooded Lister rats; settings: displacement of 2 nM 3H-OXO-M (muscarinic agonist), 2 mM magnesium chloride, 37° C., 30 min

Row | SMILES | IC50 [1] [nM] | IC50 [2] [nM]
1 | CON=C(Cl)C1=CCCN(C)C1 [E 1, 1-Methyl-1,2,5,6-tetrahydropyridin-3-yl-N-methoxycarboximidoyl chloride oxalate salt] | 2800 | 259
2 | CON=C(F)C1=CCCN(C)C1 [E 2, 1-Methyl-1,2,5,6-tetrahydropyridin-3-yl-N-methoxycarboximidoyl fluoride oxalate salt] | 1500 | 39
3 | CON=C(C#N)C1=CCCN(C)C1 [E 3, α-(Methoxyimino)-α-(1-methyl-1,2,5,6-tetrahydropyridin-3-yl) acetonitrile oxalate salt] | 9500 | 215
4 | CON=C(C1=CCCN(C)C1)C(F)(F)F [E 4, E- and Z-1-Methyl-3-(α,α,α-trifluoroacetyl)-1,2,5,6-tetrahydropyridine-O-methyl oxime oxalate salt] | 16500 | 225
5 | CON=C(C1=CCCN(C)C1)C(F)F [E 5, E- and Z-1-Methyl-3-(α,α-difluoroacetyl)-1,2,5,6-tetrahydropyridine-O-methyl oxime oxalate salt] |  | 1250
6 | CO/N=C(\CF)C1=CCCN(C)C1 [E 6, Z-1-Methyl-3-(α-fluoroacetyl)-1,2,5,6-tetrahydropyridine-O-methyl oxime oxalate salt] | 8500 | 620
7 | CO/N=C(\CF)C1=CCCNC1 [E 7, Z-3-(α-Fluoroacetyl)-1,2,5,6-tetrahydropyridine-O-methyl oxime hydrochloride salt] | 17000 | 420
8 | CON=C(F)C1=CCCNC1 [E 8, 1,2,5,6-Tetrahydropyridin-3-yl-N-methoxycarboximidoyl fluoride oxalate salt] | 2850 | 41
9 | CON=C(Cl)C1=CCCNC1 [E 9, 1,2,5,6-Tetrahydropyridin-3-yl-N-methoxycarboximidoyl chloride oxalate salt] | 4700 | 180
10 | CON=C(C#N)C1=CCCNC1 [E 10, α-(Methoxyimino)-α-(1,2,5,6-tetrahydropyridin-3-yl)acetonitrileoxalate salt] | 1150 | 35
11 | CCN1CCC=C(C(C#N)=NOC)C1 [E 11, α-(Methoxyimino)-α-(1-ethyl-1,2,5,6-tetrahydropyridin-3-yl) acetonitrile oxalate salt] |  | 1180
